Legend:
[1] = biological target: Gamma-aminobutyric acid receptor subunit alpha-6 (Homo sapiens, UniProt Q16445)
[2] = biological target: Gamma-aminobutyric acid receptor subunit alpha-4 (Homo sapiens, UniProt P48169)
Gamma-aminobutyric acid receptor subunit alpha-4, sequence (P48169 whole entry): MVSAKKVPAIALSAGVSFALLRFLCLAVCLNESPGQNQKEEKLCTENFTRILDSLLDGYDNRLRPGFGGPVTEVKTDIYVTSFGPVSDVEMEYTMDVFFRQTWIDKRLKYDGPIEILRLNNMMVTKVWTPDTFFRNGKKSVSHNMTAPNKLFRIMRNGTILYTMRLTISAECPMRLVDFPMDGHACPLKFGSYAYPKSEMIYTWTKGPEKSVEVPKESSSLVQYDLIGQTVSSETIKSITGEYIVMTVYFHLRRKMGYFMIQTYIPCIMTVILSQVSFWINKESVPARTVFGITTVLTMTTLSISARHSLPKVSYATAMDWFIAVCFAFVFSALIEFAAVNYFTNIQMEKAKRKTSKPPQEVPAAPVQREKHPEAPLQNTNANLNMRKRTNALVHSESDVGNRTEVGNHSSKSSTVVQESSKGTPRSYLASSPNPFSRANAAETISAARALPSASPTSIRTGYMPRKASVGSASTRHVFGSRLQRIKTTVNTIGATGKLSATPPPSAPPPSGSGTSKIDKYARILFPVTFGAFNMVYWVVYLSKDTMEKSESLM

Gamma-aminobutyric acid receptor subunit alpha-6, sequence (Q16445 whole entry): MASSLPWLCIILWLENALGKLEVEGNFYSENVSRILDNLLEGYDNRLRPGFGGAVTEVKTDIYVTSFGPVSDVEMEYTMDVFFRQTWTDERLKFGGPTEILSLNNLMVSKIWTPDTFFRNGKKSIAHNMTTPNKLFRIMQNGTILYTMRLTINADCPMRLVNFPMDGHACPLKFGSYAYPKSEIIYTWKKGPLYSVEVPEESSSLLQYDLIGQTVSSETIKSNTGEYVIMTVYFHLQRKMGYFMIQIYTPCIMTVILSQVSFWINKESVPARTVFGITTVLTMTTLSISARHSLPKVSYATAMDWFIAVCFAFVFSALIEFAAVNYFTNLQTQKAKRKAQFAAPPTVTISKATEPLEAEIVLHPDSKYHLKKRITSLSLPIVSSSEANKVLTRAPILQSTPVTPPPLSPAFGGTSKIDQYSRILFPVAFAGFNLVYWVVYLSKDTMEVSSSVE

Row | SMILES | Ki [1] [nM] | Ki [2] [nM]
1 | CCOC(=O)c1ncn2c1CN(C)C(=O)c1cc(N=[N+]=[N-])ccc1-2 [RO-154513] | 11.7 | 
2 | COC(=O)c1cc2c(cn1)[nH]c1ccccc12 | 3260 | 310
3 | O=c1c2cnc3ccccc3c2[nH]n1-c1ccc(Cl)cc1 | 285 | 35.6
4 | COc1ccc(-n2[nH]c3c(cnc4ccccc43)c2=O)cc1 [2-(4-Methoxy-phenyl)-2,5-dihydro-pyrazolo[4,3-c]quinolin-3-one (CGS 9895)] | 43.8 | 6.8
5 | CNC(=O)c1cc2c(cn1)[nH]c1ccccc12 [CAS_4375] | 2510 | 300
6 | CCc1c(C(=O)OC)ncc2[nH]c3cc(OC)c(OC)cc3c12 [NSC_104999] | 153 | 14.1
7 | CC(C)(C)OC(=O)c1ncn2c1C1CCCN1C(=O)c1c(Br)cccc1-2 (stereo not drawn) [8-Bromo-7-oxo-3b,4,5,6-tetrahydro-7H-2,6a,11b-triaza-benzo[g]cyclopenta[e]azulene-3-carboxylic acid tert-butyl ester] | 54.9 | 53.5
